# Experimental data published in US9999616B2 (ZENITH EPIGENETICS LTD., priority 2013, dated 2018).
# How the values were obtained:
# [1] = tested on: Human AML MV-4-11 cells; assay: Inhibition of cell proliferation in MV4-11 cells (CellTiter Aqueous One); assay type: cell-based; conditions: for IC50: MV4-11, 72 h; for Cell Proliferation activity: 72 h
# Summary of the method: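 MV4-11 cells, 5×10^4 per well in IMDM with 10% FBS, were exposed to increasing compound concentrations or 0.1% DMSO for 72 h at 37 °C in triplicate. Viability was read by MTS (CellTiter Aqueous One) absorbance at 490 nm after 3-4 h. IC50 was derived from background-corrected signal relative to DMSO.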
# [2] = tested on: hIL-6 mRNA; assay: Inhibition of hIL-6 mRNA transcription in LPS-stimulated U937 macrophages; assay type: cell-based, Human; conditions: Homo sapiens, U-937, PMA-differentiated U937 cells, 1 h pretreatment, LPS 3 h, read-out: IL-6 activity
# Summary of the method: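 PMA-differentiated U937 macrophages (60 ng/mL PMA, 3 days) pretreated 1 h with compound in 0.1% DMSO, then stimulated with 1 ug/mL E. coli LPS for 3 h at 37° C. IL-6 mRNA quantified by one-step TaqMan qRT-PCR, normalized to cyclophilin; fold expression relative to control, triplicate wells.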
# [3] = biological target: Brd4 bromodomain 1 (BRD4(1)) (Homo sapiens, UniProt O60885); assay: Inhibition of tetra-acetylated histone H4 binding to Brd4 bromodomain 1, measured by FRET (HTRF); design: made in house; host or cells: E. coli BL21(DE3); conditions: 2 h at room temperature
# Summary of the method: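 N-terminally His-tagged bromodomain (200 nM), expressed in E. coli and purified by Ni affinity and size exclusion, was incubated with biotinylated tetra-acetylated H4 peptide (25-50 nM), Eu-cryptate streptavidin and XL665 anti-His in HEPES pH 7.4 buffer with 0.2% DMSO. Reactions ran 2 h at room temperature. IC50 came from the 665/620 nm fluorescence decrease.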
# [4] = tested on: c-myc in Human AML MV4-11 cells; assay: Inhibition of cMYC expression (mRNA, real-time PCR) in MV4-11 cells; assay type: cell-based; conditions: 3 h treatment, cMYC mRNA by real-time PCR
# Summary of the method: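 MV4-11 cells in IMDM with 10% FBS were treated with increasing compound concentrations (DMSO 0.1%) for 3 h at 37 °C, in triplicate. Isolated mRNA was quantified by one-step TaqMan RT-qPCR, cMYC Ct normalized to cyclophilin, and fold expression given relative to DMSO control.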
SMILES,IC50 [1] [nM],IC50 [2] [nM],IC50 [3] [nM],IC50 [4] [nM],Cell Proliferation activity [1]
"COc1ncccc1-c1cc(-c2c(C)noc2C)cc2[nH]c(C)nc12 [Example Compound 118, 4-(4-(2-methoxy-pyridin-3-yl)-2-methyl-1H-benzo[d]imidazol-6-yl)-3,5-dimethyl isoxazole]",300 to 3000,300 to 3000,≤ 300,300 to 3000,–
"Cc1ccncc1-c1cc(-c2c(C)noc2C)cc2cn[nH]c12 [Example Compound 119, 3,5-dimethyl-4-(7-(4-methyl-pyridin-3-yl)-1H-indazol-5-yl)isoxazole]",300 to 3000,≤ 300,≤ 300,300 to 3000,–
"Cc1nn(C)cc1-c1cc(-c2c(C)noc2C)cc2cn[nH]c12 [Example Compound 120, 4-(7-(1,3-dimethyl-1H-pyrazol-4-yl)-1H-indazol-5-yl)-3,5-dimethyl isoxazole]",300 to 3000,≤ 300,≤ 300,≤ 300,–
"Cc1nc2c(-c3cccc(C#N)c3C)cc(-c3c(C)noc3C)cc2[nH]1 [Example Compound 123, 3-(6-(3,5-dimethyl-isoxazol-4-yl)-2-methyl-1H-benzo[d]imidazol-4-yl)-2-methyl-benzonitrile]",300 to 3000,≤ 300,≤ 300,≤ 300,–
"Cc1nc2c(-c3ccc4scnc4c3)cc(-c3c(C)noc3C)cc2[nH]1 [Example Compound 124, 4-(4-(benzo[d]thiazol-5-yl)-2-methyl-1H-benzo[d]imidazol-6-yl)-3,5-dimethyl isoxazole]",300 to 3000,300 to 3000,≤ 300,300 to 3000,–
"Cc1noc(C)c1-c1cc(-c2c(C)nn(C)c2C)c2[nH]ncc2c1 [Example Compound 127, 3,5-dimethyl-4-(7-(1,3,5-trimethyl-1H-pyrazol-4-yl)-1H-indazol-5-yl)isoxazole]",≤ 300,≤ 300,≤ 300,≤ 300,–
"Cc1noc(C)c1-c1cc(-c2cccnc2C(F)(F)F)c2[nH]ncc2c1 [Example Compound 128, 3,5-dimethyl-4-(7-(2-(trifluoromethyl)pyridin-3-yl)-1H-indazol-5-yl)isoxazole]",300 to 3000,≤ 300,300 to 3000,300 to 3000,–
"Cc1noc(C)c1-c1cc(-c2cnccc2C(F)(F)F)c2[nH]ncc2c1 [Example Compound 129, 3,5-dimethyl-4-(7-(4-(trifluoromethyl)pyridin-3-yl)-1H-indazol-5-yl)isoxazole]",300 to 3000,300 to 3000,300 to 3000,300 to 3000,–
"Cc1nc2c(-c3c(Cl)cncc3Cl)cc(-c3c(C)noc3C)cc2[nH]1 [Example Compound 130, 4-(4-(3,5-dichloro-pyridin-4-yl)-2-methyl-1H-benzo[d]imidazol-6-yl)-3,5-dimethyl isoxazole]",300 to 3000,≤ 300,≤ 300,300 to 3000,–
"COc1ncc(F)cc1-c1cc(-c2c(C)noc2C)cc2[nH]c(C)nc12 [Example Compound 131, 4-(4-(5-fluoro-2-methoxy-pyridin-3-yl)-2-methyl-1H-benzo[d]imidazol-6-yl)-3,5-dimethyl isoxazole]",300 to 3000,300 to 3000,300 to 3000,300 to 3000,–
"Cc1nc2c(-c3ccc(F)c(F)c3C)cc(-c3c(C)noc3C)cc2[nH]1 [Example Compound 132, 4-(4-(3,4-difluoro-2-methyl-phenyl)-2-methyl-1H-benzo[d]imidazol-6-yl)-3,5-dimethyl isoxazole]",300 to 3000,300 to 3000,300 to 3000,300 to 3000,–
"COc1nc(C)ccc1-c1cc(-c2c(C)noc2C)cc2[nH]c(C)nc12 [Example Compound 135, 4-(4-(2-methoxy-6-methyl-pyridin-3-yl)-2-methyl-1H-benzo[d]imidazol-6-yl)-3,5-dimethyl isoxazole]",300 to 3000,300 to 3000,≤ 300,≤ 300,–
"Cc1nc2c(-c3ccc4ocnc4c3)cc(-c3c(C)noc3C)cc2[nH]1 [Example Compound 136, 5-(6-(3,5-dimethyl-isoxazol-4-yl)-2-methyl-1H-benzo[d]imidazol-4-yl)benzo[d] oxazole]",300 to 3000,300 to 3000,≤ 300,≤ 300,–
"Cc1nc2c(-c3cccc4ccccc34)cc(-c3c(C)noc3C)cc2[nH]1 [Example Compound 138, 3,5-dimethyl-4-(2-methyl-4-(naphthalen-1-yl)-1H-benzo[d]imidazol-6-yl)isoxazole]",300 to 3000,≤ 300,≤ 300,300 to 3000,–
"Cc1nc2c(-c3csnc3C)cc(-c3csnc3C)cc2[nH]1 [Example Compound 139, 4,4′-(2-methyl-1H-benzo[d]imidazole-4,6-diyl)bis(3-methylisothiazole)]",–,300 to 3000,300 to 3000,3000 to 30000,Not active
"Cc1noc(C)c1-c1cc(NCCc2ccccc2)c2nc[nH]c2c1 [Example Compound 142, 6-(3,5-dimethyl-isoxazol-4-yl)-N-phenethyl-1H-benzo[d] imidazol-4-amine]",300 to 3000,300 to 3000,300 to 3000,300 to 3000,–
"Cc1nc2c(Nc3cccnc3C)cc(-c3c(C)noc3C)cc2[nH]1 [Example Compound 143, 6-(3,5-dimethylisoxazol-4-yl)-2-methyl-N-(2-methylpyridin-3-yl)-1H-benzo[d]imidazol-4-amine]",300 to 3000,300 to 3000,≤ 300,300 to 3000,–
"Cc1nc2c(-c3ccccc3Cl)cc(-c3c(C)noc3C)cc2[nH]1 [Example Compound 144, 4-(4-(2-chloro-phenyl)-2-methyl-1H-benzo[d]imidazol-6-yl)-3,5-dimethyl isoxazole]",≤ 300,≤ 300,≤ 300,≤ 300,–
"Cc1nc2c(-c3cc4ccccc4s3)cc(-c3c(C)noc3C)cc2[nH]1 [Example Compound 145, 4-(4-(benzo[b]thiophen-2-yl)-2-methyl-1H-benzo[d]imidazol-6-yl)-3,5-dimethyl isoxazole]",≤ 300,300 to 3000,300 to 3000,300 to 3000,–
"Cc1nc2c(N3CCC3=O)cc(-c3c(C)noc3C)cc2[nH]1 [Example Compound 147, 1-(6-(3,5-dimethyl-isoxazol-4-yl)-2-methyl-1H-benzo[d]imidazol-4-yl)azetidin-2-one]",–,300 to 3000,300 to 3000,300 to 3000,Not active
"Cc1nc2c(Oc3ccccc3)cc(-c3c(C)noc3C)cc2[nH]1 [Example Compound 148, 3,5-dimethyl-4-(2-methyl-4-phenoxy-1H-benzo[d]imidazol-6-yl)isoxazole]",300 to 3000,≤ 300,≤ 300,≤ 300,–
"Cc1noc(C)c1-c1cc(-c2c(C)noc2C)c2nc(NCCO)[nH]c2c1 [Example Compound 150, 2-((4,6-bis(3,5-dimethyl-isoxazol-4-yl)-1H-benzo[d]imidazol-2-yl)amino) ethanol]",300 to 3000,300 to 3000,≤ 300,300 to 3000,–
"Cc1noc(C)c1-c1cc(N(CCc2ccccc2)CCc2ccccc2)c2nc[nH]c2c1 [Example Compound 151, 6-(3,5-dimethyl-isoxazol-4-yl)-N,N-diphenethyl-1H-benzo[d] imidazol-4-amine]",300 to 3000,300 to 3000,300 to 3000,300 to 3000,–
"COc1cccc(-c2cc(-c3c(C)noc3C)cc3[nH]c(C)nc23)c1F [Example Compound 152, 4-(4-(2-fluoro-3-methoxy-phenyl)-2-methyl-1H-benzo[d]imidazol-6-yl)-3,5-dimethyl isoxazole]",300 to 3000,≤ 300,≤ 300,300 to 3000,–
"Cc1nc2c(-c3ccc4nccnc4c3)cc(-c3c(C)noc3C)cc2[nH]1 [Example Compound 153, 3,5-dimethyl-4-(2-methyl-4-(quinoxalin-6-yl)-1H-benzo[d]imidazol-6-yl)isoxazole]",300 to 3000,300 to 3000,≤ 300,300 to 3000,–
"Cc1nc2c(Oc3cccnc3C)cc(-c3c(C)noc3C)cc2[nH]1 [Example Compound 155, 3,5-dimethyl-4-(2-methyl-4-((2-methylpyridin-3-yl)oxy)-1H-benzo[d]imidazol-6-yl)isoxazole]",300 to 3000,300 to 3000,≤ 300,300 to 3000,–
